Reference: US8846947B2, “Benzimidazoles and related analogs as sirtuin modulators” (GlaxoSmithKline LLC, priority 2008, dated 2014)
Read-outs that look alike come from different tables or passages of the source.

Target: T1, SIRT1 (Homo sapiens, UniProt Q96EB6)
T1 sequence (Q96EB6 1-747): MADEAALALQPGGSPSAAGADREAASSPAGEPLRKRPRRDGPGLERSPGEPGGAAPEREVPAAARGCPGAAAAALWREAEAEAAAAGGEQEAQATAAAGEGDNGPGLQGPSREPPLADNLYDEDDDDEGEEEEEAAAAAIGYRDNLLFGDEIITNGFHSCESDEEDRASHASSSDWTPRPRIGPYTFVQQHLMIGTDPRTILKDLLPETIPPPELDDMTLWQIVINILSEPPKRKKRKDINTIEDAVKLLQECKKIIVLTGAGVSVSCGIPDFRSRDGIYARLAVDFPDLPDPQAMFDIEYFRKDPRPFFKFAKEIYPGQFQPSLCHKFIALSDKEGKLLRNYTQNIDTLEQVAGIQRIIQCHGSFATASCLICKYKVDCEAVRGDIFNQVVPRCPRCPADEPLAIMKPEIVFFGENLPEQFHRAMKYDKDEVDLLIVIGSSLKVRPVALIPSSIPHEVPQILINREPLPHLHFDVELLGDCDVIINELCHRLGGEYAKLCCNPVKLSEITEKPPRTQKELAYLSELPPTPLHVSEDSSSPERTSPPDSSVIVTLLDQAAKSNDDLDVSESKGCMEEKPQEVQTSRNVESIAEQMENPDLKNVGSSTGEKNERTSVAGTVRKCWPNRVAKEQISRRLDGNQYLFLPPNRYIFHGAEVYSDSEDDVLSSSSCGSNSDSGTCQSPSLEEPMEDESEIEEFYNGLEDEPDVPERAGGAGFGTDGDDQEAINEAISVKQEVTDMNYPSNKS
Assay: Mass spectrometry based SIRT1 deacetylase activation assay (acetylated p53-derived peptide substrate)
Format: biochemical
Description: A mass spectrometry based assay was used to identify modulators of SIRT1 activity. The mass spectrometry based assay utilizes a peptide having 20 amino acid residues as follows: Ac-EE-K(biotin)-GQSTSSHSK(Ac)NleSTEG-K(5TMR)-EE-NH2 (SEQ ID NO: 1) wherein K(Ac) is an acetylated lysine residue and Nle is a norleucine. The peptide is labeled with the fluorophore 5TMR (excitation 540 nm/emission 580 nm) at the C-terminus. The sequence of the peptide substrate is based on p53 with several modifications. In addition, the methionine residue naturally present in the sequence was replaced with the norleucine because the methionine may be susceptible to oxidation during synthesis and purification.
The mass spectrometry assay is conducted as follows: 0.5 μM peptide substrate and 120 μM βNAD^+ is incubated with 10 nM SIRT1 for 25 minutes at 25° C. in a reaction buffer (50 mM Tris-acetate pH 8, 137 mM NaCl, 2.7 mM KCl, 1 mM MgCl2, 5 mM DTT, 0.05% BSA). Test compounds may be added to the reaction as described above. […] After the 25 minute incubation with SIRT1, 10 μL of 10% formic acid is added to stop the reaction. Reactions are sealed and frozen for later mass spec analysis. Determination of the mass of the substrate peptide allows for precise determination of the degree of acetylation (i.e. starting material) as compared to deacetylated peptide (product).
A control for inhibition of sirtuin activity is conducted by adding 1 μL of 500 mM nicotinamide as a negative control at the start of the reaction (e.g., permits determination of maximum sirtuin inhibition). A control for activation of sirtuin activity is conducted using 10 nM of sirtuin protein, with 1 μL of DMSO in place of compound, to determine the amount of deacetylation of the substrate at a given timepoint within the linear range of the assay. This timepoint is the same as that used for test compounds and, within the linear range, the endpoint represents a change in velocity.
For the above assay, SIRT1 protein was expressed and purified as follows. […] The protein was expressed by induction with 1 mM IPTG as an N-terminal His-tag fusion protein at 18° C. overnight and harvested at 30,000×g. Cells were lysed with lysozyme in lysis buffer (50 mM Tris-HCl, 2 mM Tris[2-carboxyethyl]phosphine (TCEP), 10 μM ZnCl2, 200 mM NaCl) and further treated with sonication for 10 min for complete lysis. The protein was purified over a Ni-NTA column (Amersham) and fractions containing pure protein were pooled, concentrated and run over a sizing column (Sephadex S200 26/60 global). The peak containing soluble protein was collected and run on an Ion-exchange column (MonoQ). Gradient elution (200 mM-500 mM NaCl) yielded pure protein. This protein was concentrated and dialyzed against dialysis buffer (20 mM Tris-HCl, 2 mM TCEP) overnight. The protein was aliquoted and frozen at −80° C. until further use.
Sirtuin modulating compounds that activated SIRT1 were identified using the assay described above and are shown below in Table 1. The EC1.5 values for the activating compounds are represented by A (EC1.5<1.0 uM), B (EC1.5 1-25 uM), C (EC1.5 >25 uM). The percent maximum fold activation is represented by A (Fold activation >200%) or B (Fold Activation <200%).

[1] = 0.5 μM peptide substrate, 120 μM βNAD+, 10 nM SIRT1, 25 minutes at 25° C.
[2] = 0.5 μM peptide substrate, 120 μM βNAD+, 10 nM SIRT1, 25 min at 25° C.
[3] = 0.5 μM peptide substrate, 120 μM βNAD+, 10 nM SIRT1, 25 min at 25° C., read-out: EC1.5

| EC1.5 [1] | Fold Act. (percent maximum fold activation) [1] | Structure (SMILES) | also measured |
| --- | --- | --- | --- |
| A (EC1.5<1.0 uM) | A (Fold activation >200%) | O=C(Nc1ccccn1)c1cccc2[nH]c(-c3ccc(OC[C@H](O)CO)cc3C(F)(F)F)nc12 [Compound 744] |  |
|  |  | O=C(Nc1ccccn1)c1cccc2[nH]c(-c3ccc(F)cc3C(F)F)nc12 [Compound 561] | Fold Act. (percent maximum fold activation) [2]: A (Fold activation >200%); EC1.5 [3]: < 1000 nM |
| A (EC1.5<1.0 uM) | A (Fold activation >200%) | O=C(Nc1ccc(OC[C@H](O)CO)cc1)c1cccc2[nH]c(-c3cccc(N4CCOCC4)c3)nc12 [Compound 777] |  |
|  |  | Cc1cnc(NC(=O)c2cccc3[nH]c(-c4ccnn4-c4ccccc4)nc23)s1 [Compound 381] | EC1.5: A (EC1.5<1.0 uM); Fold Act. (percent maximum fold activation): A (Fold activation >200%) |
| A (EC1.5<1.0 uM) | A (Fold activation >200%) | O=C(Nc1cccc(OCC(O)CO)c1)c1cccc2[nH]c(-c3ccc(Cl)cc3C(F)(F)F)nc12 (centres unmarked) [Compound 678] |  |
|  |  | O=C(Nc1ccncn1)c1cccc2[nH]c(-c3ccc(N4CCOCC4)cc3C(F)(F)F)nc12 [Compound 591] | Fold Act. (percent maximum fold activation) [2]: A (Fold activation >200%); EC1.5 [3]: < 1000 nM |
|  |  | O=C(Nc1ccc(Cl)nn1)c1cccc2[nH]c(-c3cccc(C(F)(F)F)c3)nc12 [Compound 309] | EC1.5: C (EC1.5 >25 uM); Fold Act. (percent maximum fold activation): B (Fold Activation <200%) |
| A (EC1.5<1.0 uM) | A (Fold activation >200%) | O=C(Nc1ccccn1)c1cc(N2CCOCC2)cc2[nH]c(-c3cc(F)ccc3C(F)F)nc12 [Compound 769] |  |
| A (EC1.5<1.0 uM) | A (Fold activation >200%) | O=C(Nc1cccc(OC[C@H](O)CO)c1)c1cccc2[nH]c(-c3ccc(N4CC[C@H](F)C4)cc3C(F)(F)F)nc12 [Compound 779] |  |
| A (EC1.5<1.0 uM) | A (Fold activation >200%) | O=C(Nc1cccc(OC[C@@H](O)CO)c1)c1cccc2[nH]c(-c3ccccc3C(F)F)nc12 [Compound 700] |  |
|  |  | O=C(Nc1cc[n+]([O-])cc1)c1cccc2[nH]c(-c3ccc(Cl)cc3C(F)(F)F)nc12 [Compound 338] | EC1.5: A (EC1.5<1.0 uM); Fold Act. (percent maximum fold activation): A (Fold activation >200%) |
|  |  | O=C(NCc1ccccn1)c1cccc2[nH]c(-c3cccc(N4CCOCC4)c3)nc12 [Compound 471] | Fold Act. (percent maximum fold activation) [2]: A (Fold activation >200%); EC1.5 [3]: 1000 to 25000 nM |
| A (EC1.5<1.0 uM) | A (Fold activation >200%) | O=C(Nc1cccc(OC[C@H](O)CO)c1)c1cccc2[nH]c(-c3ccccc3C(F)F)nc12 [Compound 721] |  |
| A (EC1.5<1.0 uM) | A (Fold activation >200%) | Cc1cnc(NC(=O)c2cccc3[nH]c(-c4ccc(N5CC[C@H](F)C5)cc4C(F)F)nc23)s1 [Compound 732] |  |
| A (EC1.5<1.0 uM) | A (Fold activation >200%) | O=C(Nc1cccnc1)c1cncc2[nH]c(-c3cc(F)ccc3C(F)(F)F)nc12 [Compound 655] |  |
| A (EC1.5<1.0 uM) | A (Fold activation >200%) | CC1(C)CN(c2ccc(C(F)(F)F)c(-c3nc4c(C(=O)Nc5nccs5)cccc4[nH]3)c2)CCO1 [Compound 708] |  |

| EC1.5 [1] | Fold Act. (percent maximum fold activation) [1] | Structure (SMILES) | also measured |
| --- | --- | --- | --- |
| A (EC1.5<1.0 uM) | A (Fold activation >200%) | O=C(Nc1cccc(OC[C@H](O)CO)c1)c1cccc2[nH]c(-c3cc(F)ccc3F)nc12 [Compound 785] |  |
|  |  | O=C(Nc1nccs1)c1cccc2[nH]c(-c3cc(Cl)ccc3OCCN3CCOCC3)nc12 [Compound 501] | Fold Act. (percent maximum fold activation) [2]: A (Fold activation >200%); EC1.5 [3]: < 1000 nM |
|  |  | Cc1cc(C)nc(NC(=O)c2cccc3[nH]c(-c4ccnn4-c4ccccc4)nc23)c1 [Compound 422] | Fold Act. (percent maximum fold activation) [2]: A (Fold activation >200%); EC1.5 [3]: < 1000 nM |
| A (EC1.5<1.0 uM) | A (Fold activation >200%) | Cc1cc(-c2nc3c(C(=O)Nc4cccc(CN5CCOCC5)n4)cccc3[nH]2)ccn1 [Compound 816, 2-(2-methylpyridin-4-yl)-N-(6-(morpholinomethyl)pyridin-2-yl)-1H-benzo[d]imidazole-4-carboxamide] |  |
| B (EC1.5 1-25 uM) | A (Fold activation >200%) | O=C(Nc1nc(CN2CCOCC2)cs1)c1cccc2[nH]c(-c3cc(F)cc(F)c3)nc12 [Compound 820] |  |
|  |  | O=C(Nc1nccs1)c1cccc2[nH]c(-c3cccc(OC4CCNCC4)c3)nc12 [Compound 426] | Fold Act. (percent maximum fold activation) [2]: A (Fold activation >200%); EC1.5 [3]: < 1000 nM |
|  |  | Cc1nc(C)c(-c2nc3c(C(=O)Nc4ccccn4)cccc3[nH]2)s1 [Compound 320] | EC1.5: B (EC1.5 1-25 uM); Fold Act. (percent maximum fold activation): A (Fold activation >200%) |
| A (EC1.5<1.0 uM) | A (Fold activation >200%) | O=C(Nc1ccc(OC[C@@H](O)CO)cc1)c1cccc2[nH]c(-c3cccc(N4CCCC4)c3)nc12 [Compound 788] |  |
| A (EC1.5<1.0 uM) | A (Fold activation >200%) | Cc1nc(C)c(-c2nc3c(C(=O)Nc4ccc(OC[C@@H](O)CO)cc4)cccc3[nH]2)s1 [Compound 789] |  |
| A (EC1.5<1.0 uM) | A (Fold activation >200%) | O=C(Nc1cccnn1)c1cncc2[nH]c(-c3ccccc3C(F)(F)F)nc12 [Compound 638] |  |
| A (EC1.5<1.0 uM) | A (Fold activation >200%) | Cc1cnc(NC(=O)c2cc(F)cc3nc(-c4ccc(Cl)cc4C(F)F)[nH]c23)s1 [Compound 822] |  |
|  |  | Cc1nc(NC(=O)c2cccc3[nH]c(-c4ccccc4OCCN4CCOCC4)nc23)sc1C [Compound 476] | Fold Act. (percent maximum fold activation) [2]: A (Fold activation >200%); EC1.5 [3]: 1000 to 25000 nM |
|  |  | O=C(NC1CCOC1=O)c1cccc2[nH]c(-c3cc(F)ccc3C(F)(F)F)nc12 (centres unmarked) [Compound 378] | EC1.5: C (EC1.5 >25 uM); Fold Act. (percent maximum fold activation): B (Fold Activation <200%) |
|  |  | Cc1nc(-c2ccccc2)sc1-c1nc2c(C(=O)Nc3ccccn3)cccc2[nH]1 [Compound 409] | Fold Act. (percent maximum fold activation) [2]: A (Fold activation >200%); EC1.5 [3]: < 1000 nM |
| B (EC1.5 1-25 uM) | A (Fold activation >200%) | C[C@@H]1CN(c2ccc(C(F)(F)F)c(-c3nc4c(C(=O)Nc5nccs5)cccc4[nH]3)c2)C[C@H](C)O1 [Compound 662] |  |
